Measured values published in patent US4371544A, “Pharmaceutical composition containing 1,1,3,5-substituted biuret compound” (Taiho Pharmaceutical Company Limited, priority 1979, dated 1983).

Columns and labels:
ddy strain of male mice [1] = assay: Acute toxicity (oral, mice, 7 days observation); type: in vivo
Procedure: (§1) Next, several tests for determining the pharmacological properties, in that acute toxicity, anti-pyretic activity, analgesic activity and anti-inflammatory activity of the present 1,1,3,5-substituted biuret compounds of the formula (1) were conducted and the test results are shown in Table (2). In the tests, each compounds to be tested was used as a suspension in 0.25% carboxymethylcellulose solution. Methods for testing are explained as follows:
The ddy strain of male mice (body weight, 20-25 g) were used as test animals. The mice were fasted overnight and the compound to be tested was administered orally. […] The lethal dose (mg/kg, body weight) of the test compound was determined in connection with the death number of mice/the number of mice tested. In Table 2, the values indicated with Δ marks are 50% lethal dose, LD50 (mg/kg, body weight).

ddy strain of male mice [2] = assay: Analgesic activity, acetic acid-induced stretching method; type: in vivo, mouse (ddy); settings: for inhibition in vivo at 100 mg/kg / inhibition in vivo at 200 mg/kg: read-out: Analgesic activity, acetic acid-induced stretching method, inhibitory ratio
Procedure: as §1
According to the method reported by Koster et al., [Fed. Proc., Vol. 18, pp. 412 (1959)], the ddy strain of male mice (body weight, 20-25 g) were used as test animals. The mice were fasted overnight, 100 mg/kg body weight of the test compound was administered orally, then 1 hour after the administration, 0.2 ml of 0.7% acetic acid solution was injected intraperitoneally. The acetic acid-induced stretching symptom of mouse was observed. Analgesic activity of the test compound was calculated as the inhibitory ratio (%). In Table 2, the values in parentheses show the data obtained from the test by using the dosage other than 100 mg/kg body weight. Further, the values indicated with Δ marks show 50% effective dose, ED50 (mg/kg body weight).

ddy strain of male mice [3] = assay: Analgesic activity, Haffner method (morphine threshold dose, clamp); type: in vivo, mouse (ddy); settings: for inhibition in vivo at 100 mg/kg / ED50: Mus musculus; for inhibition in vivo at 100 mg/kg / Analgesic activity, Haffner method, inhibitory ratio: 100 mg/kg oral, 45 minutes before morphine hydrochloride; for inhibition in vivo at 100 mg/kg: read-out: Analgesic activity, Haffner method, inhibitory ratio; for ED50: oral, Δ mark, range in parentheses
Procedure: as §1
According to the modified method reported by Fujimura et. al., [Bulletin of the Institute for Chemical Research, Kyoto University, No. 25, pp. 36 (1951)], the ddy strain of male mice (body weight, 20-25 g) were used as test animals. The mice were fasted overnight, 100 mg/kg body weight of the test compound was administered orally, then 45 minutes after the administration, the threshold amount (1.5-2.5 mg/kg body weight) of morphine hydrochloride was injected subcutaneously. Then 1-hour pain reaction of the mouse caused by a clamp was observed. Analgesic activity of the test compound was calculated as the inhibitory ratio (%). In Table 2, the values in parentheses show the data obtained from the test by using the dosage other than 100 mg/kg body weight. Further, the values indicated with Δ marks show 50% effective dose, ED50 (mg/kg body weight).

[4] = test system: Wistar strain of male rats; assay: Anti-pyretic activity (dry-yeast-induced fever); type: in vivo, rat (Wistar); settings: oral (dose not given), up to 4 hours after administration
Procedure: as §1
According to the method reported by Tanabe [Folia Pharmacologia Japonica, Vol. 73, pp. 803 (1977)], the Wistar strain of male rats (150-180 g, body weight) were used as test animals. The rats were fasted overnight, and 1 ml/100 g (body weight) of 10% dry-yeast suspension were subcutaneously injected on the back of the rats. Five hours after the injection, the test compound was administered orally, then the body temperature of the rat was measured at time sequences. Anti-pyretic activity of the test compound was determined as the FI (febril index) by integrating pyrogenetic curve up to 4 hours after the administration of the test compound with time, and indicated as inhibitory ratio (%) shown by the following formula, [formula]

[5] = 100 mg/kg oral, 1 hour before acetic acid

SMILES | Acute toxicity: death number of mice/number of mice tested (ddy strain of male mice [1]; 2000 mg/kg oral) | Acute toxicity: death number of mice/number of mice tested (ddy strain of male mice [1]; 1000 mg/kg oral) | inhibition in vivo at 100 mg/kg (ddy strain of male mice [2]; Mus musculus, po) [%] | inhibition in vivo at 100 mg/kg (ddy strain of male mice [3]) [%] | Anti-pyretic activity, inhibitory ratio (febril index) [4] [%] | Analgesic activity, acetic acid-induced stretching method, inhibitory ratio (ddy strain of male mice [2]; [5]) [%] | Analgesic activity, Haffner method, inhibitory ratio (ddy strain of male mice [3]) [%] | further results
CN(C)C(=O)NC(=O)Nc1ccccc1F [Compound No. 2, 1,1-Dimethyl-5-(2-fluorophenyl)biuret] | 0/4 | – | – | – | – | – | – | inhibition in vivo at 100 mg/kg (ddy strain of male mice [2]; Mus musculus, 100 mg/kg oral, 1 hour before acetic acid): 40%
CNC(=O)N(C)C(=O)N(c1ccccc1)c1ccccc1 [compound 65, 1,1-Diphenyl-3,5-dimethylbiuret] | 4/4 | 1/4 | 12.5 | 50 | – | – | – | –
CCCCN(C)C(=O)N(C)C(=O)Nc1ccccc1 [compound 48, 1,3-Dimethyl-1-n-butyl-5-phenylbiuret] | 3/4 | 0/4 | – | – | 35 | 37.5 | 25 | –
CSc1ccc(NC(=O)N(C)C(=O)N(C)C)cc1 [compound 34, 1,1,3-Trimethyl-5-(4-methylthiophenyl)biuret] | 4/4 | 0/4 | – | – | – | 50 | – | –
CN(C)C(=O)N(C)C(=O)Nc1ccccc1Cl [compound 10, 1,1,3-Trimethyl-5-(2-chlorophenyl)biuret] | 0/4 | – | – | – | 66 | – | 37.5 | ED50 (ddy strain of male mice [2]; Mus musculus, oral, Δ mark, range in parentheses): 135 mg/kg
CN(C(=O)Nc1ccccc1)C(=O)N1CC1 [compound 66, 1,1-Ethylene-3-methyl-5-phenylbiuret] | – | – | 62.5 | 25 | 28 | – | – | Acute toxicity: death number of mice/number of mice tested (ddy strain of male mice [1]; 250 mg/kg oral): 2/4; Acute toxicity: death number of mice/number of mice tested (ddy strain of male mice [1]; 500 mg/kg oral): 4/4
CN(C)C(=O)N(C)C(=O)Nc1ccccc1F [Compound No. 7, 1,1,3-Trimethyl-5-(2-fluorophenyl)biuret] | 4/4 | 1/4 | – | – | 76 | 62.5 | 75 | –
CCN(C)C(=O)N(C)C(=O)Nc1ccccc1 [Compound No. 45, 1-ethyl-1,3-dimethyl-5-phenylbiuret] | – | – | – | – | 49 | – | – | Analgesic activity, acetic acid-induced stretching method, inhibitory ratio (ddy strain of male mice [2]; 80 mg/kg oral): 50%; ED50 (ddy strain of male mice [3]): 100 mg/kg
CN(C)C(=O)N(C)C(=O)Nc1ccc(N(C)C)cc1 [compound 19, 1,1,3-Trimethyl-5-(4-dimethylaminophenyl)biuret] | 0/4 | – | – | – | 26 | 62.5 | 50 | –
CCCCNC(=O)N(C(=O)N(C)C)c1ccccc1 [compound 40] | 1/4 | 0/4 | – | 62.5 | – | – | – | inhibition in vivo at 200 mg/kg (ddy strain of male mice [2]; Mus musculus, po): 62.5%
O=C(NC(=O)N1CCCCC1)Nc1ccccc1 [compound 69, 1,1-Pentamethylene-5-phenylbiuret] | 0/4 | – | – | – | – | – | – | inhibition in vivo at 200 mg/kg (ddy strain of male mice [2]; Mus musculus, po): 50%; ED50 (ddy strain of male mice [3]): 115 mg/kg
CNC(=O)N(C)C(=O)N1CCOCC1 [compound 72, 1,1-(3-Oxapentamethylene)-3,5-dimethylbiuret] | 0/4 | – | 50 | 25 | – | – | – | –
CN(C)C(=O)N(C)C(=O)Nc1ccc(O)cc1 [compound 21, 1,1,3-Trimethyl-5-(4-hydroxyphenyl)biuret] | 3/4 | 0/4 | 37.5 | 12.5 | – | – | – | –
